Assay results reported in US7863280B2, “Substituted 2-pyridone derivatives, method for their preparation and their use as medicament” (Sanofi-Aventis Deutschland GmbH, priority 2004, dated 2011).

Molecular target: recombinantly expressed human PARP-1 enzyme (Homo sapiens, UniProt P09874)
Assay: PARP enzyme assay
Assay type: biochemical
Settings: DNA-activated PARP-1, 200 μM NAD, tritium-labeled NAD incorporation, pH=8.0, room temperature, 1 hour
Experimental: Pharmacological Investigations PARP Enzyme Assay
The half-maximum inhibitor concentration is determined by incubating the substances to be tested with the DNA-activated, recombinantly expressed and purified PARP-1 enzyme. Specifically, various concentrations of the test substance are incubated in 50 μl of reaction solution, which contains 50 mM Tris, 5 mM MgCl2, 1 mM DTT, 200 μM NAD, 0.1 mCi/ml tritium-labeled NAD, 0.1 mg/ml DNA, 0.1 mg/ml histones, 2 μg/ml recombinantly expressed human PARP-1 enzyme, pH=8.0, at room temperature for 1 hour. The reaction is stopped by adding 150 μl of 20% trichloroacetic acid, and the radiolabelled protein constituents are precipitated. After incubation on ice for 10 minutes, the labeled, insoluble constituents are separated off through a glass fiber filter and, after washing with 20% trichloroacetic acid three times, the radioactivity incorporated by the PARP-1 enzyme is measured by radioluminescence. Consideration of the incorporation rates determined in this way as a function of the concentration of the test substance results in the half-maximum inhibitor concentration (IC50) as the concentration of the test substance which reduces the incorporation rate to half the maximum value attainable (incubation without inhibitor).

recombinantly expressed human PARP-1 enzyme, sequence (P09874 whole entry): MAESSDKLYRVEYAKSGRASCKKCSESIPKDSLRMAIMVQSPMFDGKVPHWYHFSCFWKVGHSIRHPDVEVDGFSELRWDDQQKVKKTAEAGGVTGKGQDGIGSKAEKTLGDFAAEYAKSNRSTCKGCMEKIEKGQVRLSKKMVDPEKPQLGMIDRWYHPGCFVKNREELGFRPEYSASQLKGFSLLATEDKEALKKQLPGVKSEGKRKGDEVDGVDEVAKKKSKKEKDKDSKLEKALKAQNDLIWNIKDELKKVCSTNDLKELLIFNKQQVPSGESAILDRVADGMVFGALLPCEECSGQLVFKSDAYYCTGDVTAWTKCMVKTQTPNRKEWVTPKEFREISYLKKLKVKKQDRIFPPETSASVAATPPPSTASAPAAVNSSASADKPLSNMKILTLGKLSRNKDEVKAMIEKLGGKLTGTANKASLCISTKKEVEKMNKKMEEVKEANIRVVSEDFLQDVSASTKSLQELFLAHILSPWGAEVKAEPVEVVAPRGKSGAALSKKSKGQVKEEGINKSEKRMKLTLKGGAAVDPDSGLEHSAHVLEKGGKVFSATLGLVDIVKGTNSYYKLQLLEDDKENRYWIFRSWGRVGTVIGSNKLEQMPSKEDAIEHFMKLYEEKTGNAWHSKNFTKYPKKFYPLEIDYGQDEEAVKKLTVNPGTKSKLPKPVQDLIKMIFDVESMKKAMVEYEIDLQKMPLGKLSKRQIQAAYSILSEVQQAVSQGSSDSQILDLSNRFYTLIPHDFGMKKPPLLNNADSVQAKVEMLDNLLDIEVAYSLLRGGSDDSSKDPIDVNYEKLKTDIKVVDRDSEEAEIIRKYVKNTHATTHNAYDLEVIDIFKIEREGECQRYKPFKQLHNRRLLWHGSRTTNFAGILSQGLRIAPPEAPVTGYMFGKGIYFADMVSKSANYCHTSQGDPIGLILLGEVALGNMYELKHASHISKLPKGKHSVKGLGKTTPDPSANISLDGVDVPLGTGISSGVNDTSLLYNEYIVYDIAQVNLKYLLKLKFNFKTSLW

Structure (SMILES) | IC50
CCc1cc(Nc2ccncc2)c(C)[nH]c1=O [Example 15, 3-ethyl-6-methyl-5-(pyridin-4-ylamino)-1H-pyridin-2-one] | 9.5 µM
CCc1cc(Nc2ccc(C#N)cn2)c(C)[nH]c1=O [Example 13, 6-(5-ethyl-2-methyl-6-oxo-1,6-dihydropyridin-3-ylamino)nicotinonitrile] | 3.9 µM
CCc1cc(Nc2cccc(C(C)=O)c2)c(C)[nH]c1=O [Example 3, 5-(3-acetylphenylamino)-3-ethyl-6-methyl-1H-pyridin-2-one] | 1.3 µM
CCc1cc(Nc2ccc(C(C)=O)cc2)c(C)[nH]c1=O [Example 18, 5-(4-acetylphenylamino)-3-ethyl-6-methyl-1H-pyridin-2-one] | 4.4 µM
CCc1cc(Nc2cccc(NC(C)=O)c2)c(C)[nH]c1=O [Example 4, N-[3-(5-ethyl-2-methyl-6-oxo-1,6-dihydropyridin-3-ylamino)phenyl]acetamide] | 0.8 µM
CCc1cc(Nc2ccc(S(=O)(=O)Nc3ccccn3)cc2)c(C)[nH]c1=O [Example 10, 4-(5-ethyl-2-methyl-6-oxo-1,6-dihydropyridin-3-ylamino)-N-pyridin-2-yl-benzenesulfonamide] | 6.2 µM
CCc1cc(Oc2cccc(OC)c2)c(C)[nH]c1=O [Example 20, 3-ethyl-5-(3-methoxyphenoxy)-6-methyl-1H-pyridin-2-one] | 4.8 µM
CCc1cc(Nc2ccc(NC(C)=O)cn2)c(C)[nH]c1=O [Example 12, N-[6-(5-ethyl-2-methyl-6-oxo-1,6-dihydropyridin-3-ylamino)pyridin-3-yl]-acetamide] | 1.1 µM
CCc1cc(Nc2cccc(S(C)(=O)=O)c2)c(C)[nH]c1=O [Example 24, 3-ethyl-5-(3-methanesulfonylphenylamino)-6-methyl-1H-pyridin-2-one] | 6.1 µM
CCc1cc(Nc2ccc(S(N)(=O)=O)cc2)c(C)[nH]c1=O [Example 6, 4-(5-ethyl-2-methyl-6-oxo-1,6-dihydropyridin-3-ylamino)benzenesulfonamide] | 9.8 µM
CCc1cc(Nc2ccc(Oc3cccnc3)cc2)c(C)[nH]c1=O [Example 7, 3-ethyl-6-methyl-5-[4-(pyridin-3-yloxy)phenylamino]-1H-pyridin-2-one] | 4.7 µM
CCc1cc(Nc2cccc(CO)c2)c(C)[nH]c1=O [Example 23, 3-ethyl-5-(3-hydroxymethylphenylamino)-6-methyl-1H-pyridin-2-one] | 9.8 µM
CCc1cc(Nc2cccc(C(N)=O)c2)c(C)[nH]c1=O [Example 2, 3-(5-ethyl-2-methyl-6-oxo-1,6-dihydropyridin-3-ylamino)benzamide] | 2.2 µM
CCc1cc(Nc2ccc3c(c2)N(C(C)=O)CC3)c(C)[nH]c1=O [Example 9, 5-(1-acetyl-2,3-dihydro-1H-indol-6-ylamino)-3-ethyl-6-methyl-1H-pyridin-2-one] | 3.4 µM
CCc1cc(Nc2cccc(C#N)c2)c(C)[nH]c1=O [Example 1, 3-(5-ethyl-2-methyl-6-oxo-1,6-dihydropyridin-3-ylamino)benzonitrile] | 9 µM
CCc1cc(Nc2cccnc2)c(C)[nH]c1=O [Example 19, 3-ethyl-6-methyl-5-(pyridin-3-ylamino)-1H-pyridin-2-one] | 9.2 µM
